# Measured values: ChEMBL document CHEMBL3507680, “University of Dundee, Gates Library screen for HepG2 cell viability”
# Assay: Human HepG2 cell viability assay in 384 well format
# Type: toxicity, cell-based
# Set-up: dose 125 nL, time 70.5 hour; cytotoxicity at 70.5 h: concentration not given beside the values
# Conditions: HepG2 cells, read-out: Inhibition
row,SMILES,cytotoxicity at 70.5 h [%]
1,Cc1nc(C)n(CC2CCCN(CCOc3ccc(C#N)cc3)C2)n1 (centres undefined),-11.5
2,COc1ccc(CCN2CCCC(Cn3nc(C)nc3C)C2)cc1 (centres undefined),-2.31
3,CCC(CO)NCc1ccc(-c2ccccc2F)o1 (centres undefined),-6.8
4,COCC[C@]1(O)CCN(Cc2nnc(C)s2)C[C@H]1C,-9.14
5,Cc1cnn(CC(C)NCC(=O)NCCOc2ccccc2)c1 (centres undefined),11.7
6,O=C(c1cccc2cccnc12)N1CCCC(n2ccnc2)C1 (centres undefined),-5.33
7,Cc1ccc(F)cc1S(=O)(=O)NCc1cccc(CS(C)(=O)=O)c1,-6.95
8,COc1ccc(Nc2ccc(C#N)cn2)cc1N1CCCC1=O,5.76
9,COC(=O)c1cc(C(=O)N2CCC(OC)CC2)n(-c2ccccc2)n1,-2.53
10,O=C(C1CCS(=O)(=O)CC1)N1CCC(c2ccc(F)cc2)C1 (centres undefined),4.45
11,CN(Cc1ncnn1C)C(=O)CCCn1ccc2cc(Cl)ccc21,-1.32
12,CN1CCOC(C(=O)Nc2ccc3[nH]nnc3c2)C1 (centres undefined),-3.75
13,Cc1cc(N2CCOCC(Cc3ccc4[nH]ccc4c3)C2)ncn1 (centres undefined),-9.7
14,CC[C@H]1N(CC2CCC2)CCC[C@]12CCC(=O)N2Cc1ccncc1,-5.93
15,CN(C)Cc1ccc(C2CCCCN2C(=O)c2ncccc2O)cc1 (centres undefined),-3.45
16,CC(=O)N1CC(C(=O)NC(C)c2cnn(C)c2C)C1 (centres undefined),-4.41
17,CCN(CC)CCNc1c(-c2ccccc2)c(=O)c1=O,-0.107
18,CC(=O)N1CCCC(c2nc(N(C)C)ncc2-c2cccc(F)c2)C1 (centres undefined),3.21
19,Cc1nc2c(c(C)c1CC(=O)NCc1ccccc1F)c(=O)[nH]n2C,-7.35
20,O=C(CSC1=NS(=O)(=O)c2cc(Cl)ccc2N1)c1ccccc1,23.9
21,CCOCC1c2c(ncn2C)CCN1C(=O)c1cscn1 (centres undefined),21.3
22,O=C1CC2(CCN(C(=O)Cc3cc4c(cc3Cl)OCCO4)C2)C(=O)N1 (centres undefined),-5.25
23,CCC(O)CN1CCN(C(=O)Cc2ccc(OC)cc2OC)CC1 (centres undefined),0.587

row,SMILES,cytotoxicity at 70.5 h [%]
1,CCC[C@H]1CN(Cc2ccc(N(C)C)nc2)C[C@@H]1NS(=O)(=O)CC,-1.04
2,O=C(CCc1nccs1)N1CCN(c2ccccn2)CC1,8.13
3,COc1ccc(C)cc1C(C(=O)O)N1CCN(Cc2ccccn2)CC1 (centres undefined),3.54
4,CCC(=O)N1CCC(c2nnc(Cn3cncn3)n2C2CC2)CC1,6.31
5,N#Cc1ccc(NCC(O)c2ccco2)c(C(F)(F)F)c1 (centres undefined),-6.87
6,CC(=O)c1cnc(NCCN2CCCC2)nc1C,-0.135
7,Cc1ccc(NS(=O)(=O)c2cccc(C#N)c2)c(CN(C)C)c1,0.936
8,CCN1CCN(C2CCN(CCOc3ccc(F)cc3)CC2)C1=O,-11.7
9,CNS(=O)(=O)c1ccc(C(=O)NCCc2ccccn2)cc1,-10.7
10,Cc1ccc(CNC(=O)c2nc3c(o2)CN(c2ncccn2)C3)o1,-2.56
11,COc1ccc(-c2nc(CN3CC(n4cc(C)cn4)C3)no2)cc1,-4.24
12,Cc1noc(C)c1Cn1cc(I)cc(C)c1=O,4.77
13,CC(C(=O)Nc1cnn(CC(N)=O)c1)c1ccc(Cl)s1 (centres undefined),-4.91
14,Cc1nc(N2C[C@@H](CN3CCCN(C)CC3)[C@@H](CO)C2)c2sccc2n1,27.9
15,CCN(C(=O)c1nc2c(s1)CCCN2S(C)(=O)=O)C(C)C,13.1
16,CC(C)(NC(=O)c1coc(COc2cccc(F)c2)n1)C(N)=O,-8.32
17,COc1cccc(CN(Cc2ccco2)Cc2[nH]cnc2C)c1,6.19
18,Cn1cc(CCC(=O)NS(=O)(=O)N2CCCc3ccccc32)cn1,-8.12
19,Cc1ccc(N2CC[C@@H]3CN(Cc4cccc(C)n4)C[C@@H]3C2)nn1,-4.34
20,O=C(NCc1cccc(F)c1)N1CCc2ncnc(NC3CC3)c2CC1,1.62
21,Cc1noc(C)c1CN1CC[C@H]2OCC[C@@]2(C(=O)N2CCCO2)C1,-7.09
22,Cc1noc(C)c1CCC(=O)NCC1(O)CCCN(c2ccccn2)C1 (centres undefined),-5.72
23,CCOCc1nc2c(c(N(C)Cc3snnc3C)n1)CCNCC2,-9.47

row,SMILES,cytotoxicity at 70.5 h [%]
1,NC(=O)c1ccn(COc2ccccc2Cl)n1,-9.79
2,CCOc1ncccc1NC(=O)NC1CCCN(S(C)(=O)=O)C1 (centres undefined),-0.949
3,COCCn1ccnc1C1CCN(C(=O)CSc2nnc(C)s2)CC1,-5.74
4,CCCN1CCN(C(=O)c2ccc(Cn3cc(Br)cn3)cc2)CC1,-7.06
5,CC(C)CN1CC2(CCN(C(=O)C3CSC(C)(C)C(=O)N3)CC2)CC1=O (centres undefined),-1.86
6,CNC(=O)c1cccc(CNC(C)c2ccc(F)cc2N(C)C)c1 (centres undefined),-7.51
7,O=C(Nc1ccc2ncccc2c1)C1CC(=O)N(Cc2ccccn2)C1 (centres undefined),-4.54
8,CCCc1nnc(N2CCN(Cc3ccccc3OC)CC2)o1,23.6
9,c1cncc(COCC2C[C@@H]3OCCN(Cc4cccnc4)[C@H]3C2)c1 (some centres undefined),-2.24
10,CC1=Nc2c(c(=O)[nH]n2C2CCOCC2)C(c2cccc(Br)c2)S1 (centres undefined),4.78
11,CC(=O)NCCCOc1c(C)cccc1Cl,-2.28
12,CC(C)NC(=O)[C@@]12CCO[C@@H]1CCN(Cc1ccco1)C2,1.53
13,Cc1cc(C(=O)N(C)C)nc(C2(C)CCCN2c2ccnc(C)n2)n1 (centres undefined),-6.87
14,OC1(CNCCSc2ccccn2)CNCCOC1 (centres undefined),1.38
15,N#Cc1ccc(CNCC2CCN(CCO)CC2)cc1,-5.67
16,CCS(=O)(=O)CCN1CCN(C(C)c2cccnc2)CC1 (centres undefined),19.9
17,Cc1ccc(-c2csc3c(=O)[nH]c(N4CCCC(C(=O)O)C4)nc23)cc1 (centres undefined),3.06
18,COC(=O)[C@H](C)NC(=O)c1nc(C2CC2)n(-c2ccccc2Cl)n1,-11.3
19,COc1cccc(N2CCN(CC[C@H](O)c3ccccc3)CC2=O)c1,-10.7
20,COc1c(C)cnc(CNC(=O)CCOCc2ccccc2)c1C,-3.15
21,CCn1cnnc1C1CCN(C(=O)c2cccc(N(C)C)c2)CC1,1.66
22,NC(=O)C1CCN(C(=O)c2ccccc2OCc2ccccc2Cl)CC1,12.3
23,CN(Cc1ccc(C2CC(=O)Nc3n[nH]cc32)o1)S(C)(=O)=O (centres undefined),9.86

row,SMILES,cytotoxicity at 70.5 h [%]
1,Cc1n[nH]c(C)c1CNc1ccc(-c2nc(C3CC3)no2)cn1,-0.0598
2,Cc1cc(C(=O)NS(C)(=O)=O)ccc1I,-4.1
3,Nc1nc(Sc2cccs2)cc(N2CC[C@H](CO)[C@H](O)C2)n1,22.1
4,N#Cc1cn(C2CC2)c(=O)n(Cc2cc(-c3cccs3)on2)c1=O,-6.97
5,Cc1nc(C)c(CC(=O)N2C[C@@H](C(=O)O)[C@H](c3ccccc3C)C2)s1,-17
6,Cc1ccc(C(=O)N2CC[C@@]3(C[C@@H](NS(C)(=O)=O)CCO3)C2)s1,4.89
7,O=C(CCn1cccc1)NCc1ccc(CN2CCCCCC2)o1,0.95
8,Cc1nn(C)c(C)c1C1COCCN1c1ncncc1Br (centres undefined),-4.79
9,Cc1cc(Cn2cncc(Br)c2=O)on1,5.25
10,COc1ccc(Cl)cc1C(=O)NC(CC(=O)O)c1cccs1 (centres undefined),-11
11,Cn1cc(C2(C)CN(C(=O)Nc3ccccc3F)CCO2)cn1 (centres undefined),-5.13
12,CCc1nc(CNC(=O)c2ccc(C(C)N3CCCCC3)o2)cc(=O)[nH]1 (centres undefined),-6.44
13,CNC(=O)c1ccc(CNC(=O)c2cc(C(C)C)n(C)n2)cc1,10.9
14,O=C(CC1CCCO1)NCc1ccc(Br)cc1F (centres undefined),-5.9
15,CN(Cc1ccoc1)C(=O)C1CCN(C(=O)C2CCCC2)CC1,27.9
16,Cc1cnn(C2CCCN(C(=O)COc3ccc(C(N)=O)cc3)C2)c1 (centres undefined),-9.97
17,O=C(NCC(O)c1cccs1)c1ccco1 (centres undefined),-10.6
18,COc1nn(C)c2c1CCCN(S(=O)(=O)c1ccccc1F)C2,-1.52
19,Cc1ccc(-c2nn(C)c(C(=O)O)c2Br)cc1,-20.5
20,CC(NC(=O)C1CCCC1)c1nncn1C(C)C (centres undefined),9.12
21,O=C1CC(c2ccc(F)cc2)Cc2[nH]c(=O)c(C(=O)O)cc21 (centres undefined),-8.55
22,COc1ccccc1C(=O)NC[C@H]1COCc2nc3c(C)cccc3n21,-1.28
23,Cc1ccc(-c2snnc2C(=O)NCCCO)cc1,-11.1

row,SMILES,cytotoxicity at 70.5 h [%]
1,COc1ccc2c(ccn2CCC(=O)Nc2n[nH]c(CC(C)C)n2)c1,24
2,O=c1[nH]nc(CCCN2CCOCC2)n1-c1ccc(F)cc1F,24.5
3,CC(C)N(C)CCNC(=O)N(C)CC1CCOCC1,-11.2
4,O=C(NCCc1nnc2n1CCCCC2)N1CCC2(CCOC2)C1 (centres undefined),-5.08
5,O=C(c1cncc(F)c1)N1CCC(c2ncc[nH]2)CC1,-7.04
6,Cc1cc(C)n(CCN(C)c2ccc(-c3nc(C4CC4)no3)cn2)n1,10.5
7,COc1cnc(N2C[C@@H](CN3CCOCC3)[C@@H](CO)C2)nc1,-5.35
8,COCCN1C[C@H]2CC[C@@H]1CN(C(=O)CCc1c(C)nn(C)c1C)C2,-3.68
9,Cn1nc(Cn2ccnc2)c2c1CN(c1ncccn1)C2,-4.86
10,COc1ccccc1NCc1cscn1,-1.66
11,CCc1c(C)nc2ccccc2c1N1CCC(C(=O)NC)CC1,-5.91
12,CCS(=O)(=O)N1CC(=O)N(CCOc2ccccc2)CC(O)C1 (centres undefined),-2.23
13,O=C(CC1CCCC1)NCCn1nc2ccccn2c1=O,-2.13
14,Cc1nc(CN2C[C@@H]3CN(C(=O)c4ccoc4C)C[C@@H]3C2)cs1,28.2
15,CNC(=O)CCc1cc(C)nc(C2CCCN2)c1 (centres undefined),-13.7
16,Cc1cc(C)cc(NC(=O)N(CCC#N)CCCN(C)C)c1,-5.53
17,CC(Cn1ccnc1)NC(=O)Cc1ccc2c(c1)OCCO2 (centres undefined),-0.766
18,OC1(CNCc2ccc(F)c(C(F)(F)F)c2)CCOC1 (centres undefined),-2.64
19,O=C(Nc1ccc2c(c1)C(=O)NC2=O)c1ccc(Cl)s1,-10.9
20,CC(C)(C)c1cc(NC(=O)C2CCCO2)n(-c2ccccn2)n1 (centres undefined),-2.77
21,CN(C)CC1CN(Cc2coc(-c3ccc(Cl)cc3)n2)CCO1 (centres undefined),12.9
22,Cc1nn(C)c(N(C)C)c1CNC1CCOc2ccccc21 (centres undefined),1.15
